Here are results for 1 molecule from ChEMBL document CHEMBL3627606, “Development of Novel, CNS Penetrant Positive Allosteric Modulators for the Metabotropic Glutamate Receptor Subtype 1 (mGlu1), Based on an N-(3-Chloro-4-(1,3-dioxoisoindolin-2-yl)phenyl)-3-methylfuran-2-carboxamide Scaffold, That Potentiate Wild Type and Mutant mGlu1 Receptors Found in …” (J Med Chem, 2015).

In series [1] the target is Cytochrome P450 2C9 (Homo sapiens, UniProt P11712). The series is described as follows: Inhibition of CYP2C9 in human liver microsomes by LC-MS/MS analysis. In kind it is ADME. A general note: Liver microsomes are vesicles of endoplasmic reticulum, rich in cytochrome P450 enzymes.
Sequence of Cytochrome P450 2C9 (P11712 whole entry): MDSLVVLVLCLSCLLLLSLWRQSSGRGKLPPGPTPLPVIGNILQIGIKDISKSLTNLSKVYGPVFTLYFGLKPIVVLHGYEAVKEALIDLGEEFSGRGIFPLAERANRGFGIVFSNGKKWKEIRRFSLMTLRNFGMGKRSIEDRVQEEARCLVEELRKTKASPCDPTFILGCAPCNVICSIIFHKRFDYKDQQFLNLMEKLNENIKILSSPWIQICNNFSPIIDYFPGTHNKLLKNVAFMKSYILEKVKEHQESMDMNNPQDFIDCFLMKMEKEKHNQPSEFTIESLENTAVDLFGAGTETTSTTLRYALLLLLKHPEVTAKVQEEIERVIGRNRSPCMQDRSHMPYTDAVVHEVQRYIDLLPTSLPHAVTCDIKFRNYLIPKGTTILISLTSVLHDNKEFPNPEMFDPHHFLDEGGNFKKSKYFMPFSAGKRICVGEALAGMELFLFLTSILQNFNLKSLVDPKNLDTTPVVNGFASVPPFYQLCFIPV
The target of series [2] is Metabotropic glutamate receptor 4 (Homo sapiens, UniProt Q14833). The series is described as follows: Positive allosteric modulation of human mGlu4 receptor assessed as potentiation of glutamate-induced calcium mobiliztion by cell based assay. The class given is functional. To be noted: read-out: EC50.
Sequence of Metabotropic glutamate receptor 4 (Q14833 whole entry): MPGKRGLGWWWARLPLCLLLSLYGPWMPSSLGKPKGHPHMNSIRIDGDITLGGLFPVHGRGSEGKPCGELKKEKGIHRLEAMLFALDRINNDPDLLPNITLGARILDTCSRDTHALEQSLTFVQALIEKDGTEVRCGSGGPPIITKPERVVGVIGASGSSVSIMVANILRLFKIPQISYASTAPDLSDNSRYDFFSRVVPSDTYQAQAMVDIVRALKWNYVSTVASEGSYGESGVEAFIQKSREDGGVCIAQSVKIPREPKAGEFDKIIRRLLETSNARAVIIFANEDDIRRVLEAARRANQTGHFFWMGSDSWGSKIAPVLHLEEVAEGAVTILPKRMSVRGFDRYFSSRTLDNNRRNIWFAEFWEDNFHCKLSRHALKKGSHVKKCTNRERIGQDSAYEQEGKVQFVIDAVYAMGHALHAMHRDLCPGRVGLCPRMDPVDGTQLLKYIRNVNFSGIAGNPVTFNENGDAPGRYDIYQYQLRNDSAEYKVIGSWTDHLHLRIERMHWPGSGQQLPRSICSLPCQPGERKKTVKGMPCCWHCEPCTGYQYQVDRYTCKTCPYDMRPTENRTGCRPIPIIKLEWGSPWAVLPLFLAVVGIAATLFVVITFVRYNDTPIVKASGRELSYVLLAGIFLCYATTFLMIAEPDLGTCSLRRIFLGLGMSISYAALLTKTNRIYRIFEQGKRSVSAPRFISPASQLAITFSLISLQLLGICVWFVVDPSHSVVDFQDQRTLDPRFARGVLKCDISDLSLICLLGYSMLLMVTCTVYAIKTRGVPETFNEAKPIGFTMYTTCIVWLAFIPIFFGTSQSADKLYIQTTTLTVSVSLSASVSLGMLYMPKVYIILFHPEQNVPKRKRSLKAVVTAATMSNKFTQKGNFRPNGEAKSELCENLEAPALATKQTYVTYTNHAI
Series [3] has as its target T1, Metabotropic glutamate receptor 1 (Homo sapiens, UniProt Q13255). The series can be described thus: Positive allosteric modulation of human mGlu1 receptor in HEK293 cells assessed as potentiation of glutamate-induced calcium mobiliztion by Fluo-4AM dye based fluorescence analysis. In kind it is functional, cell-based.
Target sequence in this assay (Q13255 whole entry): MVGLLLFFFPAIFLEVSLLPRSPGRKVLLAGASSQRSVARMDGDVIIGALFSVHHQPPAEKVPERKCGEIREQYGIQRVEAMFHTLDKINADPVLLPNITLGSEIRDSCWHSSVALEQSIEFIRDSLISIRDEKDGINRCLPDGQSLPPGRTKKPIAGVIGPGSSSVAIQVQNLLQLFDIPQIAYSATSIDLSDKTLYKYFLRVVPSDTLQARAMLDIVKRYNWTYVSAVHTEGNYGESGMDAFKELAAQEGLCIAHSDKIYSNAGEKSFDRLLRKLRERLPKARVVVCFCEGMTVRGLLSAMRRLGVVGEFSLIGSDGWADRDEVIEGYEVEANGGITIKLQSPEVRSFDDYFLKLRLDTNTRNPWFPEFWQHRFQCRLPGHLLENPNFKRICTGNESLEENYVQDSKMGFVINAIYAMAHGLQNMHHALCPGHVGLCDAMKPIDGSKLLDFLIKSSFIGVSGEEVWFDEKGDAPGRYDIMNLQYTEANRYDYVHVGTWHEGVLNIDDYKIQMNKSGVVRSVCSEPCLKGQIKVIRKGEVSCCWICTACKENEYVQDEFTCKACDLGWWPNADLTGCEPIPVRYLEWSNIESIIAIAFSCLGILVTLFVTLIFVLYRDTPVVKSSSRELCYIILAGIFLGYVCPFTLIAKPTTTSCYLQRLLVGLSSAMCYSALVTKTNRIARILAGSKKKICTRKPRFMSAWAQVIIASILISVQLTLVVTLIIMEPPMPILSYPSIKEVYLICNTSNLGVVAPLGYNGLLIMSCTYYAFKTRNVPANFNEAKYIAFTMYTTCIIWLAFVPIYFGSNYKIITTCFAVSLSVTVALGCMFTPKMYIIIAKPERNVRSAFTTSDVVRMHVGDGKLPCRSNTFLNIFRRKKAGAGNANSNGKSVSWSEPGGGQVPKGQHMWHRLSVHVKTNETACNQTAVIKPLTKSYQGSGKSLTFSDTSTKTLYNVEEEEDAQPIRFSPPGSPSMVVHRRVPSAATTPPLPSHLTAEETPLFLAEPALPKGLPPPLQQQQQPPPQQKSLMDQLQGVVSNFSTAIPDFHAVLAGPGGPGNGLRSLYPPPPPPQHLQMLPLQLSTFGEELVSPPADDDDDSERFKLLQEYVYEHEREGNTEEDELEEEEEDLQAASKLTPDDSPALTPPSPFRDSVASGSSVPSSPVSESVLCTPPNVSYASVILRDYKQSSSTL
Series [4] relates to Metabotropic glutamate receptor 1 (Homo sapiens), Q13255 [P729T]. The series can be described thus: Agonist activity at human mGlu1 P729T mutant receptor expressed in HEK293 cells assessed as calcium mobilization at > 1 uM uM by Fluo-4AM dye based fluorescence analysis. The class given is functional, cell-based. On the technique in general: Calcium assays in cells follow changes in intracellular calcium, usually with a dye or a luminescent sensor.
Sequence of Metabotropic glutamate receptor 1 (Homo sapiens), Q13255 [P729T] (Q13255 whole entry P729T): as the sequence (Q13255 whole entry) above, with P729T counted along it

For series [5], the species on record is Homo sapiens. The series can be described thus: Selectivity index, ratio of EC50 for human mGlu4 receptor to EC50 for human mGlu1 receptor.
In series [6] the test system is Metabotropic glutamate receptor 1 (Homo sapiens), Q13255 [P1014S]. The series can be described thus: Agonist activity at human mGlu1 P1014S mutant receptor expressed in HEK293 cells assessed as calcium mobilization at > 1 uM uM by Fluo-4AM dye based fluorescence analysis. The class given is functional, cell-based.
Sequence of Metabotropic glutamate receptor 1 (Homo sapiens), Q13255 [P1014S] (Q13255 whole entry P1014S): as the sequence (Q13255 whole entry) above, with P1014S counted along it
The nature of series [7]: Half life in Sprague-Dawley rat at 0.2 mg/kg, iv by LC-MS/MS analysis. To be noted: in vivo.
Series [8] in a line: Plasma concentration in Sprague-Dawley rat at 0.2 mg/kg, iv after 0.25 hrs by LC-MS/MS analysis.
The target of series [9] is T1, Metabotropic glutamate receptor 1. The series can be described thus: Positive allosteric modulation of human mGlu1 receptor in HEK293 cells assessed as potentiation of glutamate-induced calcium mobiliztion at 10 uM by Fluo-4AM dye based fluorescence analysis. The class given is functional, cell-based.
Target sequence in this assay (Q13255 19-1194 limits assumed): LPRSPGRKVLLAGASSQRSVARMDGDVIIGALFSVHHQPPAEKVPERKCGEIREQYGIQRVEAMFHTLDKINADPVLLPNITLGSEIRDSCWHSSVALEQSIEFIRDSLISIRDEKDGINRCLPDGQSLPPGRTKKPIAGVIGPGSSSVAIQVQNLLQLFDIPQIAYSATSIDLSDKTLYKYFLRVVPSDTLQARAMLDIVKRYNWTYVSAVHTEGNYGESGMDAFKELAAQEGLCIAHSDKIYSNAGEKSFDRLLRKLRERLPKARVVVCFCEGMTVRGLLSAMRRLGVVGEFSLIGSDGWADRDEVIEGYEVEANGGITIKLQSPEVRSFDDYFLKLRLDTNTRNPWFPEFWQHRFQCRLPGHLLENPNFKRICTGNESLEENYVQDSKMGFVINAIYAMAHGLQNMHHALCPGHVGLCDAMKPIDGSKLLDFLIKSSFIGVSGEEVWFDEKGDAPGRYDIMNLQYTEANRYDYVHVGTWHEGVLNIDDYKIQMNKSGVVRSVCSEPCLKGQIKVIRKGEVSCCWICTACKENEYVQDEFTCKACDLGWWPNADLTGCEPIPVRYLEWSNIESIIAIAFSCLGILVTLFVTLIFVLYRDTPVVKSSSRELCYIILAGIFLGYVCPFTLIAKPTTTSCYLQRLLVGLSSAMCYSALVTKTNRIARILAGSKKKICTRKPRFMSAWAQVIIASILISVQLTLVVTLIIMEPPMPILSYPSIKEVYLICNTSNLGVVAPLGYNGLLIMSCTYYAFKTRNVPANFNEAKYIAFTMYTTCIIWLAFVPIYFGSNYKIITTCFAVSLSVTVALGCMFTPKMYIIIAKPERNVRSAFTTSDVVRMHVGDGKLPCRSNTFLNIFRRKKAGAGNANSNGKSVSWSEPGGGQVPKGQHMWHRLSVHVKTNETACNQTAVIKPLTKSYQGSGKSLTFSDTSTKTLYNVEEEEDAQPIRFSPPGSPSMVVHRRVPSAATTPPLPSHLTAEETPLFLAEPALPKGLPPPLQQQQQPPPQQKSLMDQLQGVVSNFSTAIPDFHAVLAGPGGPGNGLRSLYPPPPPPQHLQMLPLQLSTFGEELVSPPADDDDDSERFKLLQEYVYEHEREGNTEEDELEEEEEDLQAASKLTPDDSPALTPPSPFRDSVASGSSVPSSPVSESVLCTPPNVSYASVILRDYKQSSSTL
For series [10], the system named is Plasma. The series is described as follows: Fraction unbound in rat plasma. In kind it is ADME, cell-free.
Series [11] is described as follows: Mean residence time in Sprague-Dawley rat at 0.2 mg/kg, iv by LC-MS/MS analysis. Particulars: in vivo.

With `Cc1ccoc1C(=O)Nc1ccc(N2C(=O)c3cccc(F)c3C2=O)c(Cl)c1`, the IC50 in series [1] amounted to 6450 nM. Further, the EC50 was 1110 nM in series [2], 31.8 nM in series [3] (read-out: EC50) and 32.4 nM in series [3] (read-out: pEC50 (converted)). Also, the Activity in [4] and in [6] was 40% in each case. The Ratio EC50 in series [5] came to 34.9. In series [7], this molecule registered a half-life of 53.6 min. In series [8], this molecule yielded a concentration at 0.25 h of 200 ng/mL. The fold change (FC) in [9] came out at 11.4. Also, the Fu in series [10] came out at 0.03. In series [11], the MRT is 64.1 min.

By IC50 is commonly meant the point on the concentration scale where inhibition reaches its midpoint. A lower IC50 goes with higher potency. A word on the half-life: it is how long it takes for the measured level to halve. A higher half-life goes with slow decline. The term MRT denotes the average time that molecules of a dose stay in the body.
